Where two headings read alike, the source gives them in different places.
Experiments:
CAL-51 = experiment: MTS anti-proliferative assay, CAL-51; assay type: cell-based; settings: Homo sapiens, 168 h, CAL-51, TNBC, basal, treatment for 7 days
Procedure: (§1) The anti-proliferative effects and IC50 values of the compounds in the BC cell line panel were determined by MTS assay.
(§2) The cells, except Sk-Br-3, AU565 and BT-474 were maintained in a mixture of Dulbecco's modified Eagle's medium and Ham's F12 medium (1:1) (DMEM/F12) without phenol red supplemented with 5% fetal bovine serum (FBS) and 1× antibiotic-antimycotic (100 U/mL penicillin G sodium, 100 μg/mL streptomycin sulfate and 0.25 μg/mL amphotericin B) and were plated separately in flasks in a humidified incubator (5% CO2: 95% air, 37° C.). The media used for Sk-Br-3, AU565 and BT-474 cell lines was described in (1) Brueggemeier et al., J. Steroid Biochem. Mol. Biol., 2005; 95:129-136; and (2) Diaz-Cruz et al., J. Clin. Endocrinol. Metab., 2005; 90:2563-2570. The media were changed every 2-days. When the cells grew to about 80% confluence, cells were washed twice with calcium- and magnesium-free phosphate-buffered saline (PBS, pH 7.4), and then trypsinized with 0.05% trypsin-5.3 mm EDTA. The trypsinization was stopped by addition of culture medium with 5% FBS. After centrifugation, the dissociated cells were resuspended in the same medium and subcultured into 75-cm^2 culture flasks at a ratio of 1:5 flasks.
(§3) The BC cells were seeded at the density of 1,000 cells per well (100 μL) into 96 well plate in DMEM/F-12 (1:1), supplemented with 5% (v/v) FCS and incubated overnight at 37° C. Test compounds are solubilized in dimethyl sulfoxide (DMSO), diluted in cell culture medium to a range of final assay concentrations of 1 nM to 10 μM, added to cells and incubated for 7 days at 37° C. The medium including the test compound are refreshed at days 3 and 5. The MTS assay are carried out by using the CellTiter 96® AQueous One Solution Cell Proliferation Assay kit following the manufacturer's instruction.

HCC1937 = experiment: MTS anti-proliferative assay, HCC1937; assay type: cell-based; settings: Homo sapiens, 168 h, HCC1937, TNBC, basal, treatment for 7 days
Procedure: as §1, §2, §3

MDA-MB-468 = experiment: MTS anti-proliferative assay, MDA-MB-468; assay type: cell-based; settings: Homo sapiens, 168 h, MDA-MB-468, TNBC, basal B, treatment for 7 days
Procedure: as §1, §2, §3

CAMA-1 = experiment: MTS anti-proliferative assay, CAMA-1; assay type: cell-based; settings: Homo sapiens, 168 h, CAMA-1, luminal, treatment for 7 days
Procedure: as §1, §2, §3

BT-20 = experiment: MTS anti-proliferative assay, BT-20; assay type: cell-based; settings: Homo sapiens, 168 h, BT-20, TNBC, basal A, treatment for 7 days
Procedure: as §1, §2, §3

Hs578T = experiment: MTS anti-proliferative assay, Hs578T; assay type: cell-based; settings: Homo sapiens, Hs-578T, 168 h, TNBC, basal B, treatment for 7 days
Procedure: as §1, §2, §3

MDA-MB-231 = experiment: MTS anti-proliferative assay, MDA-MB-231; assay type: cell-based; settings: Homo sapiens, 168 h, MDA-MB-231, TNBC, basal B, treatment for 7 days
Procedure: as §1, §2, §3

Sk-Br-3 = experiment: MTS anti-proliferative assay, Sk-Br-3; assay type: cell-based; settings: Homo sapiens, 168 h, Sk-Br-3, luminal, treatment for 7 days
Procedure: as §1, §2, §3

AU565 = experiment: MTS anti-proliferative assay, AU565; assay type: cell-based; settings: Homo sapiens, 168 h, AU565, luminal, treatment for 7 days
Procedure: as §1, §2, §3

BT-474 = experiment: MTS anti-proliferative assay, BT-474; assay type: cell-based; settings: Homo sapiens, 168 h, BT-474, luminal B, treatment for 7 days
Procedure: as §1, §2, §3

[1] = system: panel of breast cancer cell lines; experiment: Anti-proliferative assays, panel of BC cell lines (overall statements); assay type: cell-based; settings: for potency as compared to Mps1-IN-1: in some or all of the cell based assays in the panel
Procedure: This example describes the development of novel small molecule Mps1/TTK inhibitors as targeted therapies for TNBC and other aggressive BC using drug discovery technologies. Using computational modeling, medicinal chemistry, biochemistry and cell culture assays, the inventors have identified novel small molecules as potential Mps1/TTK inhibitors. The compounds were evaluated in anti-proliferative assays of a panel of 15 BC cell lines and further examined for their ability to inhibit a variety of Mps1-dependent biological functions.
as §1, §2, §3

[2] = system: normal breast epithelial cells; experiment: Primary cultures of normal breast epithelial cells; assay type: cell-based; settings: up to 20 μM
Procedure: No notable cytotoxicity was observed after 24 hours of treatment at concentrations as high as 10 μM.

[3] = molecular target: T1, Mps1/TTK kinase (recombinant GST-Mps1) (Homo sapiens, UniProt P33981); experiment: Mps1 in vitro kinase assay with Cetn2 substrate; assay type: biochemical; settings: read-out: IC50, in vitro kinase activity of Mps1
T1 sequence (P33981 1-857): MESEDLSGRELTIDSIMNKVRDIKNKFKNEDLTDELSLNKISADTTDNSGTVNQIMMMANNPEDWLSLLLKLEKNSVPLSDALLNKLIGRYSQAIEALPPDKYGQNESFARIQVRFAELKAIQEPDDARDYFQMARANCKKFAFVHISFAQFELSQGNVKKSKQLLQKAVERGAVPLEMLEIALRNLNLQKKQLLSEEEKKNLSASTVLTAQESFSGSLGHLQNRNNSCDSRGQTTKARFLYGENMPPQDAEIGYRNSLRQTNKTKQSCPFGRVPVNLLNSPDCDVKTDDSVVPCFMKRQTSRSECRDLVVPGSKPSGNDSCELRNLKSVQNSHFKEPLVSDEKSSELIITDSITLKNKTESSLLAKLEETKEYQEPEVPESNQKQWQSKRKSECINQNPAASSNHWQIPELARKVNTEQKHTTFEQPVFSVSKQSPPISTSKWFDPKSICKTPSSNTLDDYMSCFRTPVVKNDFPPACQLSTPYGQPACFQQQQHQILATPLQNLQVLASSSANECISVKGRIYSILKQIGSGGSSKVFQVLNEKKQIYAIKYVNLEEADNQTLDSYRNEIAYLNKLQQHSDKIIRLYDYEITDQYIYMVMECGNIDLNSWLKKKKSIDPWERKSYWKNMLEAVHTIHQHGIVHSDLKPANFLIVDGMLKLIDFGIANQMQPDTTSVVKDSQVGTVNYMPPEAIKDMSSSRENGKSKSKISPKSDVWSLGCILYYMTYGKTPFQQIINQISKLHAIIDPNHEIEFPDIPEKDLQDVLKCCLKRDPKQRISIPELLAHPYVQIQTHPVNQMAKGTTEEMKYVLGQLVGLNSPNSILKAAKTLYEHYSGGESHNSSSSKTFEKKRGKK
Procedure: To determine the efficacy of the compounds against Mps1/TTK kinase activity, assays were performed as previously described (11) using recombinant Mps1, Cetn2 (specific substrate), and varying concentration of compound.

[4] = additional investigations (text to Table 2)

SMILES | IC50 (CAL-51) | IC50 (HCC1937) | IC50 (MDA-MB-468) | IC50 (CAMA-1) | IC50 (BT-20) | IC50 (Hs578T) | IC50 (MDA-MB-231) | IC50 (Sk-Br-3) | IC50 (AU565) | IC50 (BT-474) | potency as compared to Mps1-IN-1 [1] | anti-proliferative effect, selectivity toward TNBC cells ([1]; preliminary studies of the initial series) | inhibition of normal breast epithelial cells [2] | IC50 [3, 4] | IC50 ([3]; preliminary investigations)
COc1cc(N2CCC(O)CC2)ccc1Nc1nc(Nc2ccccc2S(=O)(=O)C(C)C)c2cc[nH]c2n1 [Compound 1, 1-(4-((4-((2-(isopropylsulfonyl)phenyl)amino)-7H-pyrrolo[2,3-d]pyrimidin-2-yl)amino)-3-methoxyphenyl)piperidin-4-ol] | 230 nM | 730 nM | 190 nM | 360 nM | 350 nM | > 10000 nM | > 10000 nM | > 10000 nM | > 10000 nM | > 10000 nM | significantly more potent | moderate selectivity | no inhibition or incomplete dose-response curves | 809 nM | 155 nM
COc1cc(N2CCOCC2)ccc1Nc1nc(NC2CCCCC2)c2cc[nH]c2n1 [Compound 13, N4-cyclohexyl-N2-(2-methoxy-4-morpholinophenyl)-7H-pyrrolo[2,3-d]pyrimidine-2,4-diamine] | 450 nM | 1090 nM | 570 nM | 1100 nM | 570 nM | > 10000 nM | > 10000 nM | 780 nM | 900 nM | 50 nM | significantly more potent |  | no inhibition or incomplete dose-response curves | 356 nM | 30 nM

— patent US10611765B2, “Pyrrolopyrimidine derivatives as Mps1/TTK kinase inhibitors” (Ohio State Innovation Foundation, priority 2014, dated 2020)
